Active and inactive are the calls of the source.
What was measured:
[1] = Jurkat T cell cytotoxicity, dose response, cytotoxicity control for P. falciparum gametocyte viability project, luminescence (AID 1117277); assay type: functional, cell-based;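 also: potency reflects loss of cellular ATP meaning fewer viable cells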
[2] = P. falciparum late gametocyte killing, dose response, luminescence (AID 1117278); assay type: functional, cell-based;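 also: gametocytes exposed to compound for 24 hours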
[3] = cytotoxicity toward Colo320 cells – cell-based, CellTiter-Glo luminescence, IC50, dose response (AID 1117334); assay type: functional; conditions: COLO 320
[4] = HeLa 4N DNA content increase, dose response, cell-based, IC50 (AID 1117351); assay type: functional
[5] = Concentration-dependent survival of SW480 colon cancer line, luminescence detection with CellTiter-Glo, half-maximal inhibitory concentration (AID 1117338); assay type: functional
[6] = SNU-C1 cell viability reduction, dose response, CellTiter-Glo luminescence (AID 1117323); assay type: functional, cell-based
[7] = CellTiter-Glo luminescent dose response of DLD-1 viability loss (AID 1117352); assay type: functional
[8] = HeLa 2N DNA content increase, dose response, cell-based, IC50 (AID 1117349); assay type: functional
[9] = cytotoxicity toward HCT116 cells – cell-based, CellTiter-Glo luminescence, IC50, dose response (AID 1117332); assay type: functional; conditions: HCT-116
[10] = HCT116 cell viability decrease, GSK3B pretreatment – CellTiter-Glo, IC50, dose response (AID 1117339); assay type: functional; conditions: HCT-116
[11] = cytotoxicity toward HT-29 cells – cell-based, CellTiter-Glo luminescence, IC50, dose response (AID 1117330); assay type: functional
[12] = RKO cell viability reduction, dose response, CellTiter-Glo luminescence (AID 1117322); assay type: functional
fMet-Leu-Phe receptor = fMet-Leu-Phe receptor (Homo sapiens, UniProt P21462); assay: FPR ligands, dose response (AID 519); assay type: functional
[13] = target: T1, Methionyl-tRNA synthetase, putative (Trypanosoma brucei brucei, UniProt Q38C91); assay type: functional, Trypanosoma brucei brucei strain 927/4 GUTat10.1
T1 sequence (Q38C91 whole entry): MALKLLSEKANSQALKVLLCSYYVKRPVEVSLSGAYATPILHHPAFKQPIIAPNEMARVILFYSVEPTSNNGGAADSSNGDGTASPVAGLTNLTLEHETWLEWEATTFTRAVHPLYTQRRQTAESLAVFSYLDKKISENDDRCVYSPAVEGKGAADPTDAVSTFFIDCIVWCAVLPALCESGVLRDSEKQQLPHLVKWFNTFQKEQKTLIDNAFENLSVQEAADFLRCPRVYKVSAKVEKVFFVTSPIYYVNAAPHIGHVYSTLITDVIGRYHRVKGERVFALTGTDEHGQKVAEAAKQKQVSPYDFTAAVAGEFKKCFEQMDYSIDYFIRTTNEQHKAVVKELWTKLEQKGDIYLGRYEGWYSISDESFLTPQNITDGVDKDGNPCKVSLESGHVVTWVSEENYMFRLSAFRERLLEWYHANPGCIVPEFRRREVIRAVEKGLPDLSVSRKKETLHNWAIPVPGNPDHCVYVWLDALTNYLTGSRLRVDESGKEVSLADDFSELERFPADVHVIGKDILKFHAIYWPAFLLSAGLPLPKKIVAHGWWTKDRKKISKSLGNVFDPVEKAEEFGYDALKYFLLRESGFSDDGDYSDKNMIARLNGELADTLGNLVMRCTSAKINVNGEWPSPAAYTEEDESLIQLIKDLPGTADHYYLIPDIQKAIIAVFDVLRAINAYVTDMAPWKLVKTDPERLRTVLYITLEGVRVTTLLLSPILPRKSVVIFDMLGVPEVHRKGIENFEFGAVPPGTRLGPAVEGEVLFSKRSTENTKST

[14] = target: T1, Methionyl-tRNA synthetase, putative; assay type: functional, Trypanosoma brucei brucei strain 927/4 GUTat10.1; remark: listed apart in the source
[15] = Late stage counterscreen for inhibitors of Trypanosoma brucei methionyl tRNA synthetase (MetRS): Luminescence-based cell-based high throughput dose response assay to identify compounds that are cytotoxic to Jurkat human T lymphocyte cells.; assay type: functional
[16] = Counterscreen for inhibitors of Trypanosoma brucei methionyl tRNA synthetase (MetRS): Luminescence-based cell-based high throughput dose response assay to identify compounds that are cytotoxic to Jurkat human T lymphocyte cells.; assay type: functional
[17] = P. falciparum Dd2 growth inhibitors, dose response, SYBR Green, cherry-picked samples (AID 1159567); assay type: functional, cell-based
[18] = HepG2 cell cytotoxicity, dose response, cytotoxicity control, cherry-picked samples (AID 1159577); assay type: functional, cell-based
[19] = inhibitors of PGC1a acetylation in cells, dose response, cell-based, cherry-picked samples (AID 720514); assay type: functional;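 also: potency may reflect raised or lowered acetylation signal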
Kallikrein-7 = Kallikrein-7 (Homo sapiens, UniProt P49862); assay: Fluorescence Intensity-based biochemical primary high throughput dose response assay to identify activators of kallikrein-7 (K7) zymogen.
Beta-lactamase [20] = target: T2, Beta-lactamase (Pseudomonas aeruginosa, UniProt Q79MP6); assay: IMP-1 metallo-beta-lactamase inhibitors, dose response, selectivity assay for VIM-2 inhibitor project, biochemical, epi-absorbance (AID 1920)
Beta-lactamase [21] = target: T2, Beta-lactamase; assay: […] counterscreen for selective VIM-2 inhibitors: dose response biochemical high throughput screening assay to identify inhibitors of IMP-1 metallo-beta-lactamase.
Beta-lactamase [22] = target: Beta-lactamase (Salmonella choleraesuis (strain SC-B67), UniProt Q5J463); assay: Epi-absorbance-based counterscreen for selective VIM-2 inhibitors: dose response biochemical high throughput screening assay to identify inhibitors of TEM-1 serine-beta-lactamase.
[23] = P. falciparum Dd2 growth inhibitors, dose response, SYBR Green, dry powder samples (AID 1159566); assay type: functional, cell-based;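 also: potency for growth inhibition with lower SYBR green DNA signal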
[24] = HepG2 cell cytotoxicity, dose response, cytotoxicity control, plate reader, dry powder samples (AID 1159569); assay type: functional, cell-based;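 also: inhibitor potency with signal falling toward the positive control level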
[25] = P. falciparum ATP4 D1247Y mutant growth inhibitors, dose response, NITD609-resistant line, SYBR Green, dry powder (AID 1159571); assay type: functional, cell-based;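 also: parasites synchronized at ring stage by sorbitol before testing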
[26] = P. falciparum 3D7-ScDHODH growth inhibitors, dose response, SYBR Green, dry powder samples (AID 1159570); assay type: functional, cell-based;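 also: parasite growth measured after 72 hours of compound exposure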
[27] = target: Tyrosine-protein phosphatase non-receptor type 11 (Homo sapiens, UniProt Q06124); assay: SHP2 phosphatase inhibition, dose response, selectivity assay for STEP inhibitor project, biochemical (AID 602367); assay type: functional; conditions: read-out: IC50_Mean
[28] = target: Disintegrin and metalloproteinase domain-containing protein 17 (Homo sapiens, UniProt P78536); assay: exosite inhibitors of ADAM17, dose response, biochemical (AID 743260)
[29] = target: Tyrosine-protein phosphatase non-receptor type 5 (Homo sapiens, UniProt P54829); assay: STEP phosphatase inhibitors, confirmation, biochemical, fluorescence intensity, uHTS hits (AID 602372); assay type: functional; conditions: read-out: IC50_Mean
[30] = target: T3, Carboxy-terminal domain RNA polymerase II polypeptide A small phosphatase 1 (Homo sapiens, UniProt Q9GZU7); assay: inhibitors of CTDSP1, concentration-response testing, biochemical assay, absorbance-based, actives from ultra-high-throughput screening (AID 540297); assay type: functional
T3 sequence (Q9GZU7 whole entry): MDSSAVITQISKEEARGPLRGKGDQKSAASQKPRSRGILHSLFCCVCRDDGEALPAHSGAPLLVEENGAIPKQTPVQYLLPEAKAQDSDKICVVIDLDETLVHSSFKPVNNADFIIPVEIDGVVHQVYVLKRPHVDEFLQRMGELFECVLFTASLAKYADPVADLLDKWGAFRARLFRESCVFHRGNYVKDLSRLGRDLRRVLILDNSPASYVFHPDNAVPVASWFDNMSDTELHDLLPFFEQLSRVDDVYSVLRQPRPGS

[31] = ADAM10 protease inhibitors, dose response, selectivity assay for ADAM17 exosite inhibitor project, biochemical, FRET peptide substrate, recombinant human ADAM10 (AID 743259);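 also: ADAM10 enzyme cleaving a FRET peptide substrate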
[32] = target: Dual specificity protein phosphatase 3 (Homo sapiens, UniProt P51452); assay: VHR phosphatase inhibition, dose response, selectivity assay for STEP inhibitor project, biochemical (AID 602374); assay type: functional; conditions: read-out: IC50_Mean
Dual specificity protein phosphatase 3, sequence (P51452 whole entry): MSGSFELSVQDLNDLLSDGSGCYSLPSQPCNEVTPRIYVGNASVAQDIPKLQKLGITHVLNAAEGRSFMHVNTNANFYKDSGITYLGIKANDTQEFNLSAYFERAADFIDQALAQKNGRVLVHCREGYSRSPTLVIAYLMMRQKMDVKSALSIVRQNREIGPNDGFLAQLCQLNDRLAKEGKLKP

T2 sequence (Q79MP6 whole entry): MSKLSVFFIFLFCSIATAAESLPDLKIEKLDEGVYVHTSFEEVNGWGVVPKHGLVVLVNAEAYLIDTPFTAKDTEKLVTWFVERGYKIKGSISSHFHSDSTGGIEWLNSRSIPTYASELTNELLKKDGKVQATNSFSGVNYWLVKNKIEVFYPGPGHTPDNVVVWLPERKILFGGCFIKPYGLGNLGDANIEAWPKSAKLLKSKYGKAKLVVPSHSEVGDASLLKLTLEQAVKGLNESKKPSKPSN
fMet-Leu-Phe receptor, sequence (P21462 whole entry): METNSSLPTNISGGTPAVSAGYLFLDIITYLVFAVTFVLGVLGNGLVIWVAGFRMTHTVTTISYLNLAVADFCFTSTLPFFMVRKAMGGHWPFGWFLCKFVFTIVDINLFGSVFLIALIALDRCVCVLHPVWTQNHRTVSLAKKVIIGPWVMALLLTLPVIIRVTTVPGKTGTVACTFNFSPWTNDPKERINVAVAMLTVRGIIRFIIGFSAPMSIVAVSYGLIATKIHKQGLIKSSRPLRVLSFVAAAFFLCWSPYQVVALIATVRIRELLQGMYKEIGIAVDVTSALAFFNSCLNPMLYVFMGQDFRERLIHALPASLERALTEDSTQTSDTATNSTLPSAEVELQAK
Beta-lactamase (Salmonella choleraesuis (strain SC-B67), UniProt Q5J463), sequence (Q5J463 whole entry): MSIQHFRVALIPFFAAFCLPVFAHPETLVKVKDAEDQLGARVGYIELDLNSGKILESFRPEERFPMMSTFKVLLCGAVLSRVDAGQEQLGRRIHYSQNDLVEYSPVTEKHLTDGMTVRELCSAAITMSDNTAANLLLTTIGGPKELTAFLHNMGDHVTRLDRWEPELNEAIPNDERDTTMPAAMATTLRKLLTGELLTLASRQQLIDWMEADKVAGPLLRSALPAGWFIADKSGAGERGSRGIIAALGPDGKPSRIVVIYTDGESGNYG
Disintegrin and metalloproteinase domain-containing protein 17, sequence (P78536 whole entry, the tested form may be a part): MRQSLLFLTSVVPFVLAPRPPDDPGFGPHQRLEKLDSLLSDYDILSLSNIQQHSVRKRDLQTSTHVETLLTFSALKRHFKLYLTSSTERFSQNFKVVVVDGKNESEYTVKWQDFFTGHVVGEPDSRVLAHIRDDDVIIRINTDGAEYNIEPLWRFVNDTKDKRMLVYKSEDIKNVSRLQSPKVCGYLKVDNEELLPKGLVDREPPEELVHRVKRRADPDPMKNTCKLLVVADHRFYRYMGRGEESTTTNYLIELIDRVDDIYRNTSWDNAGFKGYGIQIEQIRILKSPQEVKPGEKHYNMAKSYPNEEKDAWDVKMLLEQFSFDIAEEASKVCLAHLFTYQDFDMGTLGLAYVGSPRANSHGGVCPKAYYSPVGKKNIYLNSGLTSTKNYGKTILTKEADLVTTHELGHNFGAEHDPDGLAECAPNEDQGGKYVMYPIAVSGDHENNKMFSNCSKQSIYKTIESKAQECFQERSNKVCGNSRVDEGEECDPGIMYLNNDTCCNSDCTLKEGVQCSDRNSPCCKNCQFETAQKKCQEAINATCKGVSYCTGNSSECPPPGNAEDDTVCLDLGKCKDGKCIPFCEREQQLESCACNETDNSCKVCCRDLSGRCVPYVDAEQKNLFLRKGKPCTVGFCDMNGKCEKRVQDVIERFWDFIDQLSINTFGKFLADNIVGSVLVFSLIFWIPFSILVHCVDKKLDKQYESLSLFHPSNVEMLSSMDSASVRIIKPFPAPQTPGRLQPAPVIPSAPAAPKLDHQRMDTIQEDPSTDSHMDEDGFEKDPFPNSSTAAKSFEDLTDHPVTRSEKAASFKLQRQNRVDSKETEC
Tyrosine-protein phosphatase non-receptor type 11, sequence (Q06124 whole entry, the tested form may be a part): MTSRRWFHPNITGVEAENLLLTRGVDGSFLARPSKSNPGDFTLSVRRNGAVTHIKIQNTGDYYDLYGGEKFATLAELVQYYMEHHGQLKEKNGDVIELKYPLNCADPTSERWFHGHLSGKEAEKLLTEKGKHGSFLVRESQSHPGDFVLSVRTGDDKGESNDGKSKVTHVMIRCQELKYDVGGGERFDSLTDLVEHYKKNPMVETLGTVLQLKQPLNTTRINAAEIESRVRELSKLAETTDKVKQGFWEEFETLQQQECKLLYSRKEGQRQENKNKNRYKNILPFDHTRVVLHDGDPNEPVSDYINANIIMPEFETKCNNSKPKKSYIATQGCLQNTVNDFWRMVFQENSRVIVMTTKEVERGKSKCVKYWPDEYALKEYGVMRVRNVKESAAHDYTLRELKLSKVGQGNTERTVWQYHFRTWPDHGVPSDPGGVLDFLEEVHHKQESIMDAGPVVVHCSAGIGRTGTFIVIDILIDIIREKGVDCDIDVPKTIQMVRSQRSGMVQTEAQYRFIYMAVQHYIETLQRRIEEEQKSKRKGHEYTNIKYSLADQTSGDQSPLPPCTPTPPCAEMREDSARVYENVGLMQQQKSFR
Tyrosine-protein phosphatase non-receptor type 5, sequence (P54829 whole entry, the tested form may be a part): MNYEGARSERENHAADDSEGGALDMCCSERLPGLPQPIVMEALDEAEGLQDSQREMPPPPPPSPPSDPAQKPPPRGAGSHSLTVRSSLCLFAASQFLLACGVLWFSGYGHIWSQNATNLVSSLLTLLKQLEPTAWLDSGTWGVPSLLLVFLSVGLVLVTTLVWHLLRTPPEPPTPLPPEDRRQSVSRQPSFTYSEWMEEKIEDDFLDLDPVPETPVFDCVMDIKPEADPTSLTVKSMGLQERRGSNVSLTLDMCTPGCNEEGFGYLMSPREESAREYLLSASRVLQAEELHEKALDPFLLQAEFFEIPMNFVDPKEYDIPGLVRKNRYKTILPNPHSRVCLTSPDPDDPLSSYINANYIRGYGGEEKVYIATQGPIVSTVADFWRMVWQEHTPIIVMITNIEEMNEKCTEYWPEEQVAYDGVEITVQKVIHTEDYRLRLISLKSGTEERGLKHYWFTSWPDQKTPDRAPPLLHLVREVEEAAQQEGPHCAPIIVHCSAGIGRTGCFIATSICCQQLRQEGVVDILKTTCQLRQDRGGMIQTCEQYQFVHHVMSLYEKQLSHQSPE
Kallikrein-7, sequence (P49862 whole entry): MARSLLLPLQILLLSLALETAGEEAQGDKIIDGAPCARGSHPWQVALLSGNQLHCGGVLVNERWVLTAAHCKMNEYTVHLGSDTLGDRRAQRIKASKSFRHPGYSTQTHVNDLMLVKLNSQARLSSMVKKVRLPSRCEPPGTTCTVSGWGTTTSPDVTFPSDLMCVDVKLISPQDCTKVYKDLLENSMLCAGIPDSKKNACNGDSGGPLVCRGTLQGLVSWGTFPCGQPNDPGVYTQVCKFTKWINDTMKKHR

## COc1ccc(-n2c(-c3ccco3)nc3c(cnn3-c3ccccc3C)c2=O)cc1
[1]
  IC50: > 83.3 µM (inactive)
[2]
  IC50: > 109 µM (inactive)

## O=C(O)c1ccc(-n2nc(-c3ccccc3O)nc2-c2ccccc2O)cc1 [DEFERASIROX]
[3]
  IC50: 0.409 µM (active)
[4]
  IC50: > 10 µM (inactive)
[5]
  IC50: 0.0776 µM (active)
[6]
  IC50: 0.233 µM (active)
[7]
  IC50: 0.651 µM (active)
[8]
  IC50: > 10 µM (inactive)
[9]
  IC50: 0.438 µM (active)
[10]
  IC50: 0.242 µM (active)
[11]
  IC50: 0.516 µM (active)
[12]
  IC50: 0.1 µM (active)

## Cc1ccc(C(=O)C2=C(O)C(=O)N(CCN3CCOCC3)C2c2cccnc2)cc1 (stereo not drawn)
fMet-Leu-Phe receptor
  Ki: > 66.7 µM (inactive)

## Brc1c[nH]c2nc(SCc3nc4ccccc4[nH]3)nc-2c1
[13]
  IC50: 4.23 µM (active)
[14]
  IC50: 7.89 µM (active)
[15]
  IC50: > 83.3 µM (inactive)
[16]
  IC50: 83.3 µM (inactive)

## COc1ccccc1CN1C[C@@H]2N[C@H](C1)[C@@H]2c1ccc(-c2ccccc2OC)cc1
[17]
  AC50: 4.29 µM (active)
[18]
  AC50: 11.6 µM (active)

## Cc1nc(O)c(C(=O)/C=C/c2ccccc2)c2c1CCCC2
[19]
  AC50: 8.12 µM (active)

## Cc1cc(=O)oc2c3c(cc(OCC(=O)N[C@@H](Cc4ccccc4)C(=O)O)c12)OC(C)(C)CC3
Kallikrein-7
  EC50: 49 µM (inactive)
Beta-lactamase [20]
  IC50: > 59.6 µM (inactive)
Beta-lactamase [21]
  IC50: > 59.6 µM (inactive)
Beta-lactamase [22]
  IC50: > 59.6 µM (inactive)

## O=C(c1ccc2c(c1)OCO2)N1CC(=O)N2[C@H](CO)[C@H](c3ccc(C#Cc4ccccc4)cc3)[C@H]2C1
[23]
  AC50: 1.68 µM (active)
[17]
  AC50: 2.52 µM (active)
[24]
  AC50: 25 µM (active)
[18]
  AC50: 26.3 µM (active)
[25]
  AC50: 1.93 µM (active)
[26]
  AC50: 5.73 µM (active)

## CCN(c1ccccc1)S(=O)(=O)c1cc(C(=O)OC(C)C(=O)Nc2ccc3c(c2)OCCO3)ccc1C (stereo not drawn)
[27]
  IC50: 2.47 µM (active)
[28]
  IC50: > 69.5 µM (inactive)
[29]
  IC50: > 80 µM (inactive)
[30]
  IC50: 4.38 µM (active)
[31]
  IC50: > 7.72 µM (active)
[32]
  IC50: 5.05 µM (active)

## Cn1c(CCNC(=O)C2CCCCC2)nc2cc(NC(=O)c3cccs3)ccc21
[1]
  IC50: > 83.3 µM (inactive)
[2]
  IC50: > 109 µM (inactive)

From ChEMBL document CHEMBL1201862, “PubChem BioAssay data set” (2004)
